Source: ChEMBL document CHEMBL3638466 (2015)

Target: Maternal embryonic leucine zipper kinase (Homo sapiens, UniProt Q14680)
Test: Kinase Assay: MELK activity was determined in the presence or absence of compounds using fluorescein isothiocyanate-labeled (FITC-labeled) histone H3 peptide as a substrate. The extent of FITC-labeled histone H3 peptide phosphorylation was measured by immobilized metal ion affinity-based fluorescence polarization (IMAP) technology (Sportsman J R, et al., Assay Drug Dev. Technol. 2: 205-14, 2004) …
Format: single protein

Chain of Maternal embryonic leucine zipper kinase (Q14680 whole entry): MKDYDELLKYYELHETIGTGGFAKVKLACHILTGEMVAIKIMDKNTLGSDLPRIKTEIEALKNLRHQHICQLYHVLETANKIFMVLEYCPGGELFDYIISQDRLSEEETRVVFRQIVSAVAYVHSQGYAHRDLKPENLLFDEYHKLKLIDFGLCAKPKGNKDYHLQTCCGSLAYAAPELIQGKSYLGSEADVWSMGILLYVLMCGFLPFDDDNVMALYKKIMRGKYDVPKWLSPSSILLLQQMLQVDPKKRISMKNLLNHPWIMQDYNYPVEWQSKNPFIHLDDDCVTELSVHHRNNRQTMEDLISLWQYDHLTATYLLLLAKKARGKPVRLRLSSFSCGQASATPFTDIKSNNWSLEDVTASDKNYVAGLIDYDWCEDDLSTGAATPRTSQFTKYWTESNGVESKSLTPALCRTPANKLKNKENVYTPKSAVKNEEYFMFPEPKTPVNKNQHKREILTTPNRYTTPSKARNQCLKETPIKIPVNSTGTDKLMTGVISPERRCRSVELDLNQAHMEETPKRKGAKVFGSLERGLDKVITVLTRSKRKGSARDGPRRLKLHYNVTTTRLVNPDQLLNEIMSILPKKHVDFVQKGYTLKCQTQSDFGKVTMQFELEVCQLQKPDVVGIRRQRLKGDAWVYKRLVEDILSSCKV

SMILES	IC50 [nM]
CC(=O)c1cnc2ccc(-c3cc(F)c(O)c(Cl)c3)nc2c1N[C@H]1CC[C@H](NC(=O)[C@@H]2CCCN2)CC1	2.4
CC(=O)c1cnc2ccc(-c3cc(Cl)c(O)c(Cl)c3)nc2c1NC[C@H]1CC[C@H](N(C)C)CC1	0.6
